Columns and labels:
Procathepsin L [1] = biological target: T1, Procathepsin L (Homo sapiens, UniProt P07711); experiment: Ability to block cathepsin L-catalyzed hydrolysis of the fluorogenic substrate Z-Phe-Arg-NHMec
Cathepsin B = Cathepsin B (Bos taurus, UniProt P07688); experiment: Ability to block cathepsin B-catalyzed hydrolysis of the fluorogenic substrate Z-Arg-Arg-NHMec
Procathepsin L [2] = biological target: T1, Procathepsin L; experiment: Ability to block cathepsin L-catalyzed hydrolysis of the fluorogenic substrate Z-Phe-Arg-NHMec, at 100 uM conc.; no inhibition

T1 sequence (P07711 whole entry): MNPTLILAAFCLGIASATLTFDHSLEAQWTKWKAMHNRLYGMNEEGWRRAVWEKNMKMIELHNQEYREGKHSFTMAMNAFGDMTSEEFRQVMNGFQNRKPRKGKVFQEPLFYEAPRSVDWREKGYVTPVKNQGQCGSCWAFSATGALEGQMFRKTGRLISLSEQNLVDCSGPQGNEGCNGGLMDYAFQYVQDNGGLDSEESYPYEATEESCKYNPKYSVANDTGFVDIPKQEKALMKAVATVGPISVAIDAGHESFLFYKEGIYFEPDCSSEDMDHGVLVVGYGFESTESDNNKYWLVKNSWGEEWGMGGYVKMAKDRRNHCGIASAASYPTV

Ki (Procathepsin L [1]) | Ki (Cathepsin B) | Ki (Procathepsin L [2]) | Structure (SMILES)
970 nM | 1250 nM | – | CC(=O)N[C@@H](CC(C)C)C(=O)N[C@@H](CC(C)C)C(=O)N[C@@H](CCCN=C(N)N)C(=O)C=O
0.6 nM | 214 nM | – | CCCCOc1ccc(C[C@H](NC(=O)[C@H](Cc2ccccc2)NC(=O)OCc2ccccc2)C(=O)C=O)cc1
– | 640 nM | Not Active | CC(=O)N[C@@H](CCCN=C(N)N)C(=O)N[C@@H](CCCN=C(N)N)C(=O)C=O
90 nM | 40 nM | – | N=C(N)NCCC[C@H](NC(=O)[C@H](Cc1ccccc1)C(=O)OCc1ccccc1)C(=O)C=O

Source: ChEMBL document CHEMBL1133264, “Development of peptidyl alpha-keto-beta-aldehydes as new inhibitors of cathepsin L--comparisons of potency and selectivity profiles with cathepsin B” (Bioorg Med Chem Lett, 2000)
